In paper PMC11371785 (Frontiers in Pharmacology, 2024):
Marks after values point to notes of the source that are not given here.

Experiments:
[1] = system: Plasmodium berghei infected mice; assay: Body weight, rectal temperature and packed cell volume in the suppressive test; assay type: in vivo, Mus musculus; conditions: SEM; for Weight (g) initial / Temperature (°C) initial: before the experiment; for Weight (g) initial / Temperature (°C) initial / Weight (g) final / Temperature (°C) final: n = 5; for PCV (%) DAY 0: first day of infection; for Temperature (°C) initial / Temperature (°C) final: rectal; for Percentage change in PCV (%) DAY 0 / Percentage change in temperature (%) / Weight (g) final / PCV (%) DAY 4 / Percentage change in weight (%) / Temperature (°C) final / PCV (%) DAY 9 / Percentage change in PCV (%) DAY 9: 4 days; for Weight (g) final / Temperature (°C) final: after the experiment; for PCV (%) DAY 4: fifth day after infection; for Percentage change in weight (%): infected mice; for PCV (%) DAY 9 / Percentage change in PCV (%) DAY 9: tenth day after infection
Method: (§1) Twenty-five (25) albino mice (weighing 22 ± 2 g) were randomly divided into five (5) groups of five animals per group (n = 5). Parasitized blood was obtained from infected donor mouse with rising parasitaemia (≥ 20%) by cardiac puncture and the infected blood was diluted with phosphate saline glucose buffer (PSG-mouse) to attain an estimate of 5 × 10^7 red blood cells per ml. Then, 0.2 mL of inoculum containing 1 × 10^7 infected RBCs was injected into the abdominal cavity of experimental animals by intraperitoneal (ip) injection.
(§2) All drugs were administered orally for 4 days.
(§3) The chemo-suppressive effect of HA in mice infected with P. berghei was assessed using Peter’s 4-day suppressive test. The mice were infected with the malaria parasite inoculum (1 × 10^7 P.berghei ANKA) on the first day of the experiment (D0) and treated as indicated in the section above on Animal Grouping and Drug Administration after 2 h post-infection. The treatment continues for another three consecutive days. Each mouse’s parasitaemia level was assessed 96 h after infection (D4). Animals in each group had their PCV, rectal temperature, and body weight measured both before and after the experiment.
Blood samples were taken from each mouse’s tail using heparinized capillary tubes, sealed, and then put into a micro haematocrit centrifuge to calculate the packed cell volume of the blood. After being centrifuged for 5 min at 12,000 rpm, the blood samples’ PCV was calculated using the following formula: Packed Cell Volume=volume of erythrocyes in a given volume of blood/total volume of blood×100
The body weight and rectal temperature of each mouse were also determined using a sensitive digital weighing balance and rectal thermometer, respectively.

[2] = system: bone marrow cells of mice; assay: Micronucleus (MN) assay; conditions: SEM
Method: (§4) The negative control group (group a) was treated with 0.2 mL of the vehicle, while the positive control group (group g) was also treated with the 20 mg/kg dosage of cyclophosphamide. […] The blood samples were collected for haematological analysis, while the liver and kidney were also collected for histopathological analysis and fixed in 10% formalin.
The animals used for the subacute toxicity test were also used for the MN assay because the treatment follows the same procedure, but the positive control, cyclophosphamide (group g) for MN, is a single-dose treatment that was given intraperitoneally. The MN assay was carried out as described by Jain and Pandey ([Jain and Pandey, 2019]), four animals were sacrificed from each group by cervical dislocation, and both femurs were removed. The epiphyses were removed from the femur, and the bone marrow was flushed with fetal bovine serum (FBS) into Eppendorf tubes (1.5 mL). After a light tap to ensure appropriate cell dispersion, it was centrifuged at 2,000 rpm for 5 minutes. The pellet was suspended in another 1 mL of FBS in the Eppendorf tube, thoroughly mixed using a micropipette, and centrifuged once more at the same rate after the supernatant was discarded. Once more, the supernatant was removed, and the pellet was mixed with 0.5 mL of FBS before a few drops of the viscous mixture were dropped on a clean, oil-free slide. This drop was spread on the slide and allowed to air dry.
The slides were stained with 0.4% May-Grunewald stain for 3-4 min and were immediately transferred into another coupling jar containing May-Grunewald and distilled water (ratio 1:1) and allowed to stain for another 3-4 min. The slides were rinsed in distilled water and allowed to dry completely. Then, it was also stained in 5% Giemsa stain for 5 min, rinsed in distilled water, and allowed to dry completely. A minimum of 1,000 cells from each mouse were examined for micronuclei in polychromatic erythrocytes (MNPCE) using a light microscope at a magnification of 1,000X (oil immersion). The relative size of the erythrocytes and the difference in staining between PCEs (bluish-purple) and normochromatic erythrocytes (NCEs, pink-orange) are used to distinguish between them.

Plasmodium berghei ANKA [3] = assay: Mean survival time of P. berghei-infected mice; assay type: in vivo; conditions: 4 days, monitored 30 days, n = 5, ±SEM
Method: as §1, §2
The survival rate was monitored from the first day of the treatment to 30 days. Each mouse’s mortality was monitored and recorded in days. The mean survival time (MST) of mice in each group was determined, as shown below. MST=sum of survival time of all mice in a group in days/total number of mice in a group

Plasmodium berghei ANKA [4] = assay: Peter's 4-day suppressive test; assay type: in vivo; conditions: 4 days, D4; for Suppressive parasitemia (%): n = 5, ±SEM
Method: as §1, §2, §3
Parasitaemia was determined by counting the number of infected RBCs (minimum of four fields per slide) using a light microscope with an objective lens magnification power of 1,000x. Percentage parasitaemia and percentage chemo-suppression were calculated using the modified Peters and Robinson formula ([Nyandwaro et al., 2020]): % parasitemia=number of parasitized RBCs/total number of RBC count×100 % chemo−suppression=% parasitemia in negative control− % parasitemia in study group/% parasitemia in negative control×100

[5] = Weight of experimental animals for toxicity test; conditions: SEM
Method: as §4

liver and kidney of mice = assay: Subacute toxicity test: liver and kidney histopathology; conditions: 20 mg/kg, positive control (group g)
Method: as §4
The tissues were sliced into small pieces not more than 4 mm thick and then submerged in 10% formal saline for 24 h to fix, according to the protocols of [Avwioro et al., (2010)] for histopathology investigations. The tissue processing was carried out automatically using an automatic tissue processor (Leica TP 1020) by letting the tissues pass through several reagents: 10% formal saline was used in Stations 1 and 2, and alcohol in Stations 3 through 7 was used to dehydrate the tissues. The tissues were then moved into Stations 10 to 12, which contained wax for infiltration or impregnation, after passing through Stations 8 and 9, which contained xylene for the purpose of […]. Tissues stayed in each station for 1 hour during the 12-h duration of these operations. The tissues were then covered with molten paraffin wax, allowed to cool on ice, and then sectioned at a 4-micrometer interval. These parts were picked up using clean, labeled slides and floated in a water bath set at 55°C. […]

[6] = 20 mg/kg/bwt single dose intraperitoneally

With `CCCCCCCCCCCCCCCC(=O)O` [HA, n-Hexadecanoic acid] the “Weight (g) initial” value ([1]; 10 mg/kg group) was 22.88 ± 0.47 g, the “PCV (%) DAY 0” value ([1]; 10 mg/kg group) was 42.63 ± 1.25% and the “Temperature (°C) initial” value ([1]; 10 mg/kg group) was 32.26 ± 0.33 °C. For the same molecule, the “Percentage change in PCV (%) DAY 0” value ([1]; 10 mg/kg oral) was 6.00 ± 13.99%, the “Percentage change in temperature (%)” value ([1]; 10 mg/kg oral) was −6.08 ± 1.60% and the “Weight (g) final” value ([1]; 10 mg/kg oral) was 19.24 ± 0.81 g. For the same molecule, the “PCV (%) DAY 4” value ([1]; 10 mg/kg oral) was 43.75 ± 5.11%, the “Percentage change in weight (%)” value ([1]; 10 mg/kg oral) was −15.99 ± 2.63% and the “Temperature (°C) final” value ([1]; 10 mg/kg oral) was 30.28 ± 0.24 °C. For the same molecule, the “PCV (%) DAY 9” value ([1]; 10 mg/kg oral) was 23.12 ± 0.46%, the “Percentage change in PCV (%) DAY 9” value ([1]; 10 mg/kg oral) was −45.54 ± 3.26% and the “Weight (g) initial” value ([1]; 50 mg/kg group) was 24.48 ± 0.71 g. The “PCV (%) DAY 0” value ([1]; 50 mg/kg group) was 46.60 ± 2.88%, the “Temperature (°C) initial” value ([1]; 50 mg/kg group) was 32.20 ± 0.32 °C and the “Percentage change in PCV (%) DAY 0” value ([1]; 50 mg/kg oral) was 3.54 ± 3.53%. For the same molecule, the “Percentage change in temperature (%)” value ([1]; 50 mg/kg oral) was −6.56 ± 1.17%, the “Weight (g) final” value ([1]; 50 mg/kg oral) was 22.94 ± 1.24 g and the “PCV (%) DAY 4” value ([1]; 50 mg/kg oral) was 48.20 ± 3.14%. For the same molecule, the “Percentage change in weight (%)” value ([1]; 50 mg/kg oral) was −6.46 ± 2.75%, the “Temperature (°C) final” value ([1]; 50 mg/kg oral) was 30.08 ± 0.37 °C and the “PCV (%) DAY 9” value ([1]; 50 mg/kg oral) was 22.93 ± 4.57%. For the same molecule, the “Percentage change in PCV (%) DAY 9” value ([1]; 50 mg/kg oral) was −51.35 ± 8.51%, the “Weight (g) initial” value ([1]; 100 mg/kg group) was 22.19 ± 0.40 g and the “PCV (%) DAY 0” value ([1]; 100 mg/kg group) was 40.94 ± 2.51%. The “Temperature (°C) initial” value ([1]; 100 mg/kg group) was 32.20 ± 0.06 °C, the “Percentage change in PCV (%) DAY 0” value ([1]; 100 mg/kg oral) was 5.03 ± 2.78% and the “Percentage change in temperature (%)” value ([1]; 100 mg/kg oral) was −6.39 ± 1.59%. For the same molecule, the “Weight (g) final” value ([1]; 100 mg/kg oral) was 19.99 ± 0.31 g, the “PCV (%) DAY 4” value ([1]; 100 mg/kg oral) was 43.00 ± 5.03% and the “Percentage change in weight (%)” value ([1]; 100 mg/kg oral) was −9.77 ± 2.56%. The “Temperature (°C) final” value ([1]; 100 mg/kg oral) was 30.14 ± 0.46 °C, the “PCV (%) DAY 9” value ([1]; 100 mg/kg oral) was 25.42 ± 12.08% and the “Percentage change in PCV (%) DAY 9” value ([1]; 100 mg/kg oral) was −39.10 ± 10.67%. For the same molecule, the “MnNCE (micronucleated normochromatic erythrocytes)” value (from here on “MnNCE”) ([2]; 2 mg/kg oral, 14 days) was 3.42 ± 0.30, the “MnPCE (micronucleated polychromatic erythrocytes)” value (from here on “MnPCE”) ([2]; 2 mg/kg oral, 14 days) was 6.25 ± 0.88 and the “MnNCE” value ([2]; 5 mg/kg oral, 14 days) was 3.17 ± 0.74. For the same molecule, the “MnPCE” value ([2]; 5 mg/kg oral, 14 days) was 9.08 ± 1.30, the “MnNCE” value ([2]; 10 mg/kg oral, 14 days) was 6.67 ± 2.25 and the “MnPCE” value ([2]; 10 mg/kg oral, 14 days) was 11.58 ± 2.00. For the same molecule, the “MnNCE” value ([2]; 50 mg/kg oral, 14 days) was 7.19 ± 0.98, the “MnPCE” value ([2]; 50 mg/kg oral, 14 days) was 18.86 ± 1.74 and the “MnNCE” value ([2]; 100 mg/kg oral, 14 days) was 8.00 ± 0.84. For the same molecule, the “MnPCE” value ([2]; 100 mg/kg oral, 14 days) was 23.11 ± 0.58, the “MST (days)” value (Plasmodium berghei ANKA [3]; 10 mg/kg oral) was 15.60 ± 2.62 ^d days and the “MST (days)” value (Plasmodium berghei ANKA [3]; 50 mg/kg oral) was 9.20 ± 1.16 ^d days. For the same molecule, the “MST (days)” value (Plasmodium berghei ANKA [3]; 100 mg/kg oral) was 11.40 ± 1.6 ^d days, the “Percentage chemosuppression (%)” value (Plasmodium berghei ANKA [4]; 10 mg/kg oral) was 71.58% and the “Suppressive parasitemia (%)” value (Plasmodium berghei ANKA [4]; 10 mg/kg oral) was 1.89 ± 0.30^ab %. The “Percentage chemosuppression (%)” value (Plasmodium berghei ANKA [4]; 50 mg/kg oral) was 83.80%, the “Suppressive parasitemia (%)” value (Plasmodium berghei ANKA [4]; 50 mg/kg oral) was 1.08 ± 0.29 ^a % and the “Percentage chemosuppression (%)” value (Plasmodium berghei ANKA [4]; 100 mg/kg oral) was 89.74%. The “Suppressive parasitemia (%)” value (Plasmodium berghei ANKA [4]; 100 mg/kg oral) was 0.68 ± 0.18 ^a %.
For `O=P1(N(CCCl)CCCl)NCCCO1` (stereo not shown) [CYP, Cyclophosphamide], the “Weight (g) final” value ([5]; 20 mg/kg (positive control), n = 5) was 24.43 ± 0.25 g, the “Percentage change in weight (%)” value ([5]; 20 mg/kg (positive control), toxicity test) was −0.50 ± 0.34% and the “Weight (g) initial” value ([5]; 20 mg/kg group (positive control), toxicity test, n = 5) was 24.53 ± 0.27 g. The “MnNCE” value [2, 6] was 100.9 ± 11.99, the “MnPCE” value [2, 6] was 225.9 ± 8.84 and the “Others (other abnormalities)” value [2, 6] was 119.2 ± 19.59. The “PCE: NCE (polychromatic erythrocytes/normochromatic erythrocytes ratio)” value [2, 6] was 0.51 ± 0.04, the Kidney histological presentation (liver and kidney of mice) was “normal architecture” and the Liver histological presentation (liver and kidney of mice) was “normal architecture”.
